Measurements taken from patent US4833268A, “Threo-adrenalinecarboxylic acid, and the production and uses thereof” (Zaidan Hojin Biseibutsu Kagaku Kenkyu Kai, priority 1982, dated 1989).
Like-named read-outs stand apart in the source and are kept apart here.

Key:
[1] = test system: harmaline-induced tremor; assay: Test 1: inhibitory activity against harmaline-induced tremor; format: in vivo, ddY-strain mice; settings: for Reduction (%) in the duration of tremor action: 30 minutes before harmaline 10 mg/kg i.p., relative to harmaline-only control
Experimental: This test was made according to one usual method for screening antiparkinsonian drugs which determines inhibitory activity against harmaline-induced tremor.
ddY-strain Mice (male, body weight 20-30 g, five in each group) were used as test animal for respective tests. The new compound, DL-threo-adrenalinecarboxylic acid according to this invention, was intraperitoneally administered to each of the mice at a dosage of 400 mg/kg or […], and after the lapse of 30 minutes harmaline was also intrapenitoneally injected to the same mice at a dosage of 10 mg/kg. Then, the duration of tremor action as induced in the mice under test was observed and recorded. The rate (percentage) of reduction in the duration of tremor action in relation to the control group of mice to which only harmaline was administered in the same dosage was calculated by the equation given below. By way of comparison DL-threo-3-(3,4-dihydroxyphenyl)serine (i.e. DL-threo-DOPS) in a dosage of 400 mg/kg was tested in the same manner as above. [formula]

[2] = format: in vivo, mice; settings: 500 mg/kg i.p., whole brain 90 minutes after administration
Experimental: 90 Minutes after the i.p. administration, the whole brain portion was removed surgically from the mice. The quantity of the threo-adrenalinecarboxylic acid or the quantity of the threo-DOPS which was transferred into and accumulated in the brain portion of mice, as well as the quantity of adrenaline in the brain portion of mice were determined by a high-performance liquid chromatography.

[3] = test system: reserpine-induced decrease in the body temperature and muscular rigidity; assay: Test 3: reserpine-induced decrease in body temperature and muscular rigidity (reserpine 2.5 mg/kg s.c.); format: in vivo, ddY-strain mice; settings: for Body Temperature (°C.) (Average ± Standard deviation) 24 Hours after administration of reserpine: 800 mg/kg group, 24 hours after reserpine 2.5 mg/kg s.c., before test compound; for Body Temperature (°C.) (Average ± Standard deviation) 1 Hour after administration of adrenaline carboxylic acid / Muscular Rigidity: number of mice exhibiting significant improvement in the muscular rigidity per the total number of mice in each group: given 24 hours after reserpine 2.5 mg/kg s.c.; for Body Temperature (°C.) (Average ± Standard deviation) Before administration of reserpine: baseline of the 800 mg/kg group, before reserpine and before test compound
Experimental: After this, 800 mg/kg of L-threo-adrenalinecarboxylic acid or 800 mg/kg of D-threo-adrenalinecarboxylic acid or DL-threo-adrenalinecarboxylic acid synthetized according to this invention was intraperitoneally administered to the mice having received reserpine. One hour after the administration of the threo-adrenalinecarboxylic acid, the body temperature of the treated mice was determined. Estimation was also made about whether the muscular rigidity as induced by reserpine was improved by the administration of the threo-adrenalinecarboxylic acid of this invention.

[4] = Test 4: acute toxicity; settings: i.p., 0.5 ml per mouse of 20 mg/ml suspension in 0.5% CMC
Experimental: This test is carried out to examine acute toxicity of the DL-threo-adrenalinecarboxylic acid.
To DDB4-strain mice (male, body weight 23-28 g, six in each group) was intraperitoneally administered at a dosage of 0.5 ml per mouse a suspension containing 20 mg/ml of DL-threo-adrenalinecarboxylic acid dispersed in an aqueous solution of 0.5% carboxymethylcellulose (CMC). The mice were then raised under normal conditions for 7 days after the administration of the compound. During these 7 days, the mice were observed and estimated with regard to their body weight, the quantity of feedstock and the quantity of water which were taken by the mice.

[5] = test system: reserpine-induced decrease in the body temperature; assay: Test 2: inhibition of reserpine-induced decrease in body temperature (reserpine 4 mg/kg i.p.); format: in vivo, ddY-strain mice; settings: for Body Temperature (°C.) 1 Hour after / Body Temperature (°C.) 2 Hours after: given 24 hours after reserpine 4 mg/kg i.p.
Experimental: ddY-strain Mice (male, body weight 20-30 g, five in each group) were used as the test animal for respective tests. Reserpine was intraperitoneally administered to each mouse at a dose of 4 mg/kg. 24 Hours later, the decreased body temperature of the mice was observed and recorded. After this, 1500 mg/kg or 2000 mg/kg of DL-threo-adrenalinecarboxylic acid was intraperitoneally administered to each of the mice having received reserpine. At the end of 1 hour and at the end of 2 hours after the administration of the DL-threo-adrenalinecarboxylic acid, the body temperature of these treated mice was determined and shown in Table 3 below.

[6] = cited from earlier work; for levels of noradrenaline in heart and brain: intraperitoneal administration of high dosages; for accumulation of noradrenaline in brain: after intraperitoneal administration, rats; for decarboxylation in vivo, leading to accumulation of noradrenaline in heart: intraperitoneally administered in rats
[7] = Test 7: in vitro decarboxylation by supernatant of mouse whole brain homogenate; settings: mouse, brain homogenate supernatant, pH 8
Experimental: (§1) The whole brains of mice of ddY-strain were homogenized and the resulting brain homogenate was diluted with the same volume of a buffere solution (comprising 50 mM Tris-HCl (pH 8.6, 1.5 mM EDTA.2Na); 0.5 mM Pridoxal-5-Phosphate; 1 mM Nialamide; and 0.85 mM L-ascorbic acid), and the mixture was centrifuged at 10,000 g to give a supernatant liquid containing the brain enzymes. To this supernatant liquid (500 μl) was added a solution containing 4.5 mM of a substrate selected from L-threo-adrenalinecarboxylic acid, L-threo-DOPS and L-DOPA. The mixture obtained (pH ca. 8, 1.0 ml) was incubated for 30 minutes at 37° C., followed by quantitative determination of adrenaline, noradrenaline or dopamine formed as the reaction product catecholamine.
(§2) The determination of the catecholamine as produced (adrenaline, noradrenaline or […]) was made according to the following procedure: Thus, the incubated mixture was admixed with aqueous 6% perchloric acid (PCA) for stopping the enzymatic reactions, and the reaction solution so obtained was de-salted by adding thereto potassium carbonate to precipitate the potassium perchlorate, and removing the precipitate by filtration. The de-salted reaction solution was passed through a column of Amberlite CG-50 as developed with 250 μl of 2N-PCA solution and then with 250μl of water. The eluate was analyzed by a high performance liquid chromatography under the following conditions:
(§3) Mobile Phase: 0.1M Citrate buffer (pH 4.3)-methanol(9:1) containing 0.0025M 1-octane sulfonic acid sodium salt
(§4) Column temperature: 40° C.
(§5) Applied voltage: 600 mV vs. Ag/AgCl.
(§6) The yield of the catecholamine as formed was calculated in term of percentages based on the quantity of the substrate charged, and this calculated yield denotes the rate of decarboxylation of the substrate compound (in %).

[8] = test system: brain enzymes (homogenate of the whole brains of mice); assay: as above
Experimental: as §1, §2, §3, §4, §5, §6

[9] = Test 6: brain concentration of 14C-labelled compound after intravenous administration; format: in vivo, C57 Black-strain mice; settings: administered intraperitoneally or intravenously in mice
Experimental: After a last injection of heparin, the treated mice were anesthetized with ethylether and the breast opened surgically. The blood was withdrawn from the heart and the lower portion of the heart ventricle was cut off. A catheter was inserted at the ventricle into the artery and fixed by means of binding threads. The two veins at the neck were opened surgically, and immediately physiological saline was injected through said catheter so that the remaining blood was entirely withdrawn at the opened veins together with the washing saline. The whole brain was removed from the sacrificed mouse, and the whole brain was dried in air at ambient temperature overnight.

## N[C@H](C(=O)O)[C@H](O)c1ccc(O)c(O)c1 (relative stereo) [DL-threo-DOPS, DL-threo-3-(3,4-dihydroxyphenyl)serine, reference compound]
[1]; 400 mg/kg i.p.
  Reduction (%) in the duration of tremor action: 26%
[2]
  Quantity (as average) of the administered compound present in brain: Not detectable

## CN[C@H](C(=O)O)[C@H](O)c1ccc(O)c(O)c1 (relative stereo) [DL-threo-adrenalinecarboxylic acid, DL-threo-3-(3,4-dihydroxyphenyl)-N-methylserine]
[1]; 400 mg/kg i.p.
  Reduction (%) in the duration of tremor action: 34%
[1]; 600 mg/kg i.p.
  Reduction (%) in the duration of tremor action: 37%
[1]; i.p., harmaline 10 mg/kg
  reduction in duration of tremor action, comparison in words: significantly superior to DL-threo-DOPS
[2]
  Quantity (as average) of the administered compound present in brain: 2.0 n mole/g
[2]; not administered: 0.37 n mole/g
  Quantity (as average) of adrenaline in brain: 0.44 n mole/g
[3]
  Body Temperature (°C.) (Average ± Standard deviation) 24 Hours after administration of reserpine: 34.9 ± 0.7 °C
  Body Temperature (°C.) (Average ± Standard deviation) Before administration of reserpine: 39.1 ± 0.2 °C
[3]; 800 mg/kg i.p.
  Body Temperature (°C.) (Average ± Standard deviation) 1 Hour after administration of adrenaline carboxylic acid: 36.9 ± 0.3 °C
  Muscular Rigidity: number of mice exhibiting significant improvement in the muscular rigidity per the total number of mice in each group: 0/5
[4]; 7 days observation
  acute toxicity: body weight, quantity of feedstock and quantity of water taken, treated vs control group: No diference could be detected
[4]; after 7 days
  acute toxicity: anatomical examination, organ weights, bio-chemical tests of blood, tissue-pathological tests, treated vs control group: no significant difference existed
[5]; 1500 mg/kg i.p.
  Body Temperature (°C.) 1 Hour after: 32.9 °C
  Body Temperature (°C.) 2 Hours after: 32.6 °C
[5]; 2000 mg/kg i.p.
  Body Temperature (°C.) 1 Hour after: 34.0 °C
  Body Temperature (°C.) 2 Hours after: 32.5 °C
[5]; 1500 or 2000 mg/kg i.p., compared to control mice receiving reserpine only
  effect on reserpine-induced decrease in body temperature, in words: inhibited the reserpine-induced decrease in the body temperature

## N[C@@H](C(=O)O)[C@H](O)c1ccc(O)c(O)c1 [D-erythro-DOPS]
[6]
  levels of noradrenaline in heart and brain: slight increase

## N[C@@H](C(=O)O)[C@@H](O)c1ccc(O)c(O)c1 [D-threo-DOPS]
[6]
  levels of noradrenaline in heart and brain: slight increase

## CN[C@@H](C(=O)O)[C@@H](O)c1ccc(O)c(O)c1 [D-threo-adrenalinecarboxylic acid]
[3]
  Body Temperature (°C.) (Average ± Standard deviation) 24 Hours after administration of reserpine: 36.0 ± 0.5 °C
  Body Temperature (°C.) (Average ± Standard deviation) Before administration of reserpine: 38.9 ± 0.2 °C
[3]; 800 mg/kg i.p.
  Body Temperature (°C.) (Average ± Standard deviation) 1 Hour after administration of adrenaline carboxylic acid: 35.9 ± 0.5 °C
  Muscular Rigidity: number of mice exhibiting significant improvement in the muscular rigidity per the total number of mice in each group: 0/5

## N[C@@H](Cc1ccc(O)c(O)c1)C(=O)O [L-DOPA, L-3,4-dihydroxyphenylalanine]
[7]
  metabolised at 0.5 h, 4500 µM: > 11.7%

## N[C@H](C(=O)O)[C@@H](O)c1ccc(O)c(O)c1 [L-erythro-DOPS]
[6]
  accumulation of noradrenaline in brain: significant
  decarboxylation in vivo, leading to accumulation of noradrenaline in heart: readily decarboxylated in vivo

## N[C@H](C(=O)O)[C@H](O)c1ccc(O)c(O)c1 [L-threo-DOPS, L-threo-3-(3,4-dihydroxyphenyl)serine]
[6]; after direct injection into a cerebral ventricle
  accumulation of natural (l)-noradrenaline in the brain: marked
[6]
  accumulation of noradrenaline in brain: negligible
  decarboxylation in vivo, leading to accumulation of noradrenaline in heart: readily decarboxylated in vivo
[7]
  metabolised at 0.5 h, 4500 µM: > 0.52%
[8]
  decarboxylation in vitro by homogenate of whole brains of mice, in words: can be decarboxylated into noradrenaline

## CN[C@H](C(=O)O)[C@H](O)c1ccc(O)c(O)c1 [L-threo-adrenalinecarboxylic acid, L-threo-3-(3,4-dihydroxyphenyl)-N-methylserine]
[7]
  metabolised at 0.5 h, 4500 µM: < 0.00031%
[8]; in vitro, mouse whole brain homogenate
  decarboxylation in vitro by homogenate of whole brains of mice, in words: can hardly be decarboxylated into adrenaline
[3]
  Body Temperature (°C.) (Average ± Standard deviation) 24 Hours after administration of reserpine: 35.4 ± 0.4 °C
  Body Temperature (°C.) (Average ± Standard deviation) Before administration of reserpine: 39.0 ± 0.2 °C
[3]; 800 mg/kg i.p.
  effect on reserpine-induced decrease in body temperature, in words: remarkably inhibits the reserpine-induced decrease in the body temperature
  effect on reserpine-induced muscular rigidity, in words: remarkably improves (eliminates or weakens) the muscular rigidity
  Body Temperature (°C.) (Average ± Standard deviation) 1 Hour after administration of adrenaline carboxylic acid: 38.7 ± 0.5 °C
  Muscular Rigidity: number of mice exhibiting significant improvement in the muscular rigidity per the total number of mice in each group: 5/5
[9]
  penetration through the blood-brain barrier, in words: can surprisingly penetrate and transfer through the blood-brain barrier into the brain
